# Reference: a melting point compilation (Tetko et al.)
row,melting point [°C],Compound
1,182 to 184,O=C(CSc1nnnn1-c1ccccc1)c1ccc[nH]1
2,126 to 128,CC(C)(C)OC(=O)NC1(CC(=O)O)CCC1
3,147 to 149,O=C(O)C1CC1c1ccc(OCc2ccccc2)cc1 (stereo not drawn)
4,184 to 186,CC(Nc1ncc(C(=O)O)cc1Cl)c1cccnc1 (stereo not drawn)
5,59 to 61,CC(NC(=O)OC(C)(C)C)C(=O)Cc1ccccc1 (stereo not drawn)
6,55 to 59,CC(=O)c1ccc(OCC(=O)N2CCOCC2)cc1
7,214 to 216,COC(=O)c1c[nH]c(=O)c([N+](=O)[O-])c1
8,297 to 299,O=C(O)c1cc(-c2ccccn2)nc2ccccc12
9,98 to 100,Cc1ccc(N)c(C(=O)N(C)C)c1
10,189 to 191,COC(=O)c1cc2c(Br)ccc(F)c2[nH]1
11,226 to 228,O=C(O)c1cc(Br)cc([N+](=O)[O-])c1Cl
12,209 to 211,Cc1cncc(C=CC(=O)O)c1
13,122 to 124,O=C(O)CS(=O)(=O)c1ccc(Cl)cc1
14,62 to 64,COc1cccc(Oc2ccc(N)cc2)c1
15,94 to 96,O=C1NC(=O)C2CC12 (stereo not drawn)
16,190 to 192,O=C(O)c1cccc(S(=O)(=O)NCc2ccco2)c1
17,162 to 164,CN1C(=O)CC(C(=O)O)c2ccccc21 (stereo not drawn)
18,111 to 113,CC(C)Oc1ccc(S(=O)(=O)N(C)C)cc1N
19,109 to 111,CC1CC(O)CC(C)N1 (stereo not drawn)
20,200 to 202,CCCCOc1ccc(-c2nnc(N)[nH]2)cc1
21,37 to 39,OCc1ccc(Cc2ccccc2)cc1
22,71 to 73,NCc1cc2ccccc2[nH]1
23,179 to 181,COc1ccc(-c2cc3ncnc(Cl)c3s2)cc1

row,melting point [°C],Compound
1,125 to 127,CCOc1ccc2ncc(C#N)c(Cl)c2c1
2,32 to 34,COc1ccc(COc2cc(Br)ccc2C(F)(F)F)cc1
3,264 to 266,c1ccc2c(-c3nc4ccccc4[nH]3)cccc2c1
4,135 to 137,Cc1cc2ncn(Cc3ccc(F)cc3)c2cc1C
5,124 to 126,C=CCc1cc(C(=O)O)cc(OC)c1OC
6,107 to 109,COC(=O)C(C#N)=Cc1cccc(F)c1
7,92 to 94,N#Cc1ccccc1Oc1ccc(N)cn1
8,131 to 133,Cc1ccc(C(=O)Nc2cccc(CN)c2)cc1
9,188 to 190,O=C(O)Cc1csc(-c2ccc3c(c2)OCCO3)n1
10,208 to 210,NC1=NC(=O)c2ccccc21
11,189 to 191,CCOc1ccc(Nc2ncccc2C(=O)O)cc1
12,89 to 91,Nc1cc(-c2ccsc2)no1
13,69 to 71,CCc1nonc1N
14,73 to 75,C1CCC(C2CCNCC2)CC1
15,176 to 178,COc1ccc2nc(C#N)ccc2c1
16,250 to 252,Cc1cc2nnc(S)n2c(C)n1
17,177 to 179,CN(C)C(=O)c1ccc(NC(=O)CCl)cc1
18,117 to 119,O=C1NCCNC1c1cccc(Br)c1 (stereo not drawn)
19,59 to 61,CCC1(CO)CCNCC1
20,166 to 168,O=C(O)Cc1cc(Cl)c2c(c1)OCCCO2
21,175 to 177,O=C(O)CC1(CC(=O)Nc2nccs2)CCCCC1
22,125 to 127,CC(CS(C)(=O)=O)C(=O)O (stereo not drawn)
23,146 to 148,CCc1ccsc1C(N)=O

row,melting point [°C],Compound
1,69 to 71,O=C(O)c1ccc(F)c(COCC2CC2)c1
2,111 to 113,Cc1nc(Cl)cc(-c2ccncc2)n1
3,95 to 98,Nc1nc2c(s1)CN(Cc1ccccc1)CC2
4,73 to 75,CC(O)c1ccc(N(C)Cc2ccccn2)c(F)c1 (stereo not drawn)
5,152 to 154,Nc1ccc(S(N)(=O)=O)c(F)c1
6,63 to 65,NCCCS(=O)(=O)Cc1ccccc1
7,263 to 265,Nc1ccc(N2CCSCC2)c(C(=O)O)c1
8,134 to 136,CN(Cc1ccccc1)C(N)=O
9,98 to 100,O=C(O)CNC(=O)c1cccc(Cl)c1
10,288 to 290,Cc1cc2n(n1)C(=O)C(C)C(=O)N2 (stereo not drawn)
11,106 to 108,CC(SCC(=O)Nc1cccc(Br)c1)C(=O)O (stereo not drawn)
12,57 to 59,COc1cc(C)nc(C=O)c1
13,179 to 181,NNc1ncc(Cl)cc1Cl
14,159 to 161,O=C(O)c1cc(-c2ccco2)nn1-c1ccccc1
15,185 to 187,Cn1c(N)c(C(=O)CCl)c(=O)n(C)c1=O
16,163 to 165,OCc1cc2ccccc2nc1Cl
17,217 to 219,O=C1NC(=O)c2cc(Cl)c(Cl)cc21
18,192 to 194,O=C(O)/C=C/c1cc(Cl)ccc1Cl
19,105 to 107,Clc1nc(CN2CCOCC2)nc2scc(-c3cccs3)c12
20,99 to 101,N#Cc1ccc(S(=O)(=O)NC2CC2)cc1
21,203 to 205,Cc1cc(C(N)C(=O)O)cc(C)c1O (stereo not drawn)
22,113 to 115,O=C(c1cnoc1)c1ccccc1O
23,166 to 168,Cn1ccnc1C(O)(c1nccn1C)C1CC1

row,melting point [°C],Compound
1,143 to 145,O=C(O)c1cccc(OCc2ccc(F)cc2)c1
2,199 to 201,O=C(O)Cc1ccc(NC(=O)c2ccc(Br)o2)cc1
3,111 to 113,CC(O)c1nc2ccccc2n1C (stereo not drawn)
4,229 to 231,COC(=O)Nc1cccc(C(=O)O)c1
5,54 to 56,Cc1cc(S(=O)(=O)Cl)cnc1Cl
6,89 to 91,CC(C)(CC(=O)O)NC(=O)OC(C)(C)C
7,196 to 198,Cc1ccc(C(C)NC(=O)CCl)cc1C (stereo not drawn)
8,93 to 95,CN(C)C(=O)c1ccc(C#N)cc1
9,244 to 246,CCc1cc(=O)n2c([nH]c3ccccc32)c1C#N
10,122 to 124,CC(C)(C)NS(=O)(=O)c1ccccc1NN
11,93 to 95,O=C(O)CCOc1ccc(Cl)cc1Cl
12,62 to 64,C=CCNC(=O)c1cccc(S(=O)(=O)Cl)c1
13,245 to 247,Cc1nn(Cc2ccc(Cl)cc2)c2sc(C(=O)O)cc12
14,246 to 248,Cc1cc(C)nc(-n2[nH]c(C(=O)O)cc2=O)n1
15,223 to 225,CCOC(=O)c1c(-c2ccc(OC)c(OC)c2)csc1N
16,169 to 171,O=C(O)c1ccc(COc2ccccc2)o1
17,143 to 145,N#Cc1cccc(Cc2cnc(N)s2)c1
18,143 to 145,CC(C)(C)c1ccc(Oc2ccc(C(=O)O)cn2)cc1
19,214 to 216,O=C(O)c1cc(S(=O)(=O)N2CCCCC2)ccc1Cl
20,83 to 85,Cc1ccc(S(=O)(=O)Oc2cccnc2[N+](=O)[O-])cc1
21,182 to 184,COC(=O)c1c(C(=O)OC)c(-c2ccc(N)cc2)n2c1CCC2
22,233 to 235,NC(c1nnn[nH]1)C1CC1 (stereo not drawn)
23,132 to 134,O=Cc1ccc(OCCC(=O)O)cc1

row,melting point [°C],Compound
1,99 to 101,O=C1COc2cc(OCc3ccccc3)ccc21
2,52 to 54,O=Cc1c(O)cccc1Cl
3,75 to 77,COc1cc(C=O)cc(Cl)c1OC(F)F
4,109 to 111,Oc1cccc(Oc2cccnc2)c1
5,105 to 107,Cc1ccc(C(=O)CC#N)s1
6,129 to 131,CC(C)n1c(Cl)nnc1-c1ccccc1
7,242 to 244,Cc1cccc(-c2nc(N)n[nH]2)c1[N+](=O)[O-]
8,64 to 66,Cc1cc(C)cc(-n2ncc(C=O)n2)c1
9,139 to 141,COc1ccc(S(=O)(=O)CCC(=O)O)cc1OC
10,35 to 37,CC(C)NC(CCO)C1CCCCC1 (stereo not drawn)
11,105 to 106,CC(C)(C)c1ccc(-c2nnc(S)n2N)cc1
12,149 to 151,c1ccc(C2=NCCN2)nc1
13,96 to 98,COC(=O)C1CSCC(c2ccccc2)N1 (stereo not drawn)
14,143 to 145,Cn1c(C(=O)O)ccc1-c1ccccc1
15,121 to 123,CCS(=O)(=O)NCCc1ccc(S(N)(=O)=O)s1
16,54 to 56,CCOC(C)C(N)=S (stereo not drawn)
17,151 to 153,O=C(O)CCC(=O)NCC(=O)c1ccccc1Cl
18,177 to 181,NNC(=O)Cc1nc2ccccc2[nH]1
19,169 to 171,Cc1onc(-c2cccc(Br)c2)c1C(=O)O
20,160 to 168,Cc1nn(C)c(C)c1C(=O)C(=O)O
21,74 to 76,Cc1ccnc(NN)c1
22,85 to 87,CCOc1cc(C=O)ccc1OCCOc1ccc(F)cc1
23,284 to 286,COc1ccc2nc(C)cc(O)c2c1

row,melting point [°C],Compound
1,249 to 251,CC(C)Cn1c(N)c(Br)c(=O)[nH]c1=O
2,259 to 261,Cc1ccc(-c2nc3ccccc3[nH]2)s1
3,277 to 279,O=C(O)c1ccc2[nH]nnc2n1
4,369 to 371,Cc1cc(C)n2nc(N)nc2n1
5,92 to 94,CCNC(=O)c1ccc(CN)cc1
6,151 to 153,O=C(O)c1cc(S(=O)(=O)Cl)cc(Cl)c1Cl
7,81 to 83,CN1CCN(C(=O)c2ccc(Br)cc2)CC1
8,243 to 245,Cc1ccc2nc(-c3ccc(N=C=S)cc3)sc2c1
9,59 to 61,O=C1c2ccccc2C(=O)N1CCCS(=O)(=O)Cl
10,101 to 103,CNc1ccc(Br)cc1[N+](=O)[O-]
11,< 17,CC(C)(C)c1ccc(OCC(=O)O)c(C(C)(C)C)c1
12,84 to 86,CCNC(=O)CCC(=O)O
13,148 to 150,Nc1ccc(NCCCC(=O)O)cc1
14,130 to 132,COc1nc2sccn2c1C=O
15,70 to 72,Cc1ccc(S(=O)(=O)Cl)c(Br)c1
16,236 to 238,Nc1ccc(N2CCOCC2)c(S(=O)(=O)Nc2ccc(Cl)cc2)c1
17,148 to 150,CON(C)S(=O)(=O)c1ccc(N)cc1
18,209 to 211,O=C(O)C(=Cc1ccco1)NC(=O)c1ccccc1
19,65 to 67,N#Cc1cccc(Cn2ccnc2)c1
20,195 to 197,Nc1cc(-c2ccc([N+](=O)[O-])cc2)no1
21,84 to 86,COc1cc(CC#N)ccc1[N+](=O)[O-]

row,Compound,melting point [°C]
1,CCc1ccc(C(=O)CCl)s1,52 to 54
2,COc1ccc(O)c(C(C)(C)C)c1,61 to 63
3,CSc1ccc(C(=O)CCl)cc1,72 to 74
4,O=C1CC2(CCOCC2)CN1,132 to 134
5,O=C(O)CCn1nnnc1S,156 to 158
6,CC(Cl)C(=O)c1ccc(Br)cc1 (stereo not drawn),54 to 56
7,[N-]=[N+]=NC(C(N)=O)c1ccc(F)cc1 (stereo not drawn),127 to 129
